Patent US20060172993A1 (priority 2002, published 2006)

System: Patients diagnosed with Alzheimer's Disease
Test: Adverse events / safety monitoring in the trial
Format: in vivo, human
Description: Subjects in the Placebo group received 21 weeks (5 months) of placebo medication.
The safety of the drug was also monitored throughout the study. Blood samples for biochemistry and haematology and random urine sample for urinalysis were taken at each visit and at completion for all efficacy testing. Systolic and diastolic blood pressure were measured in the sitting position, pulse and vital signs were recorded at each visit.

## COc1ccc2c3c1O[C@H]1C[C@@H](O)C=C[C@@]31CCN(C)C2 [GAL, galantamine]
8 mg/day
  Adverse event Agitation, % of patients: (15.0%)
  Adverse event Agitation, number of patients: 21
  Adverse event Anorexia, % of patients: (5.7%)
  Adverse event Anorexia, number of patients: 8
  Adverse event Depression, % of patients: (2.9%)
  Adverse event Depression, number of patients: 4
  Adverse event Diarrhea, % of patients: (5.0%)
  Adverse event Diarrhea, number of patients: 7
  Adverse event Dizziness, % of patients: (5.0%)
  Adverse event Dizziness, number of patients: 7
  Adverse event Dyspepsia, % of patients: (2.9%)
  Adverse event Dyspepsia, number of patients: 4
  Adverse event Edema peripheral, % of patients: (6.4%)
  Adverse event Edema peripheral, number of patients: 9
  Adverse event Fall, % of patients: (7.9%)
  Adverse event Fall, number of patients: 11
  Adverse event Headache, % of patients: (3.6%)
  Adverse event Headache, number of patients: 5
  Adverse event Injury, % of patients: (3.6%)
  Adverse event Injury, number of patients: 5
  Adverse event Nausea, % of patients: (5.7%)
  Adverse event Nausea, number of patients: 8
  Adverse event Rhinitis, % of patients: (6.4%)
  Adverse event Rhinitis, number of patients: 9
  Adverse event Urinary tract infection, % of patients: (7.9%)
  Adverse event Urinary tract infection, number of patients: 11
  Adverse event Vomiting, % of patients: (3.6%)
  Adverse event Vomiting, number of patients: 5
  Adverse event Weight decrease, % of patients: (1.4%)
  Adverse event Weight decrease, number of patients: 2
  Adverse event of clinical interest Bradycardia, % of patients: (3.6%)
  Adverse event of clinical interest Bradycardia, number of patients: 5
  Adverse event of clinical interest Convulsions, number of patients: 0
  Adverse event of clinical interest Fatigue, % of patients: (2.1%)
  Adverse event of clinical interest Fatigue, number of patients: 3
  Adverse event of clinical interest Muscle weakness, % of patients: (0.7%)
  Adverse event of clinical interest Muscle weakness, number of patients: 1
  Adverse event of clinical interest Syncope, % of patients: (1.4%)
  Adverse event of clinical interest Syncope, number of patients: 2
  Serious adverse event Abdominal pain, % of patients: (0.0%)
  Serious adverse event Abdominal pain, number of patients: 0
  Serious adverse event Agitation, % of patients: (1.4%)
  Serious adverse event Agitation, number of patients: 2
  Serious adverse event Asthenia, % of patients: (0.0%)
  Serious adverse event Asthenia, number of patients: 0
  Serious adverse event Basal cell carcinoma, % of patients: (0.0%)
  Serious adverse event Basal cell carcinoma, number of patients: 0
  Serious adverse event Breast neoplasm female, % of patients: (0.0%)
  Serious adverse event Breast neoplasm female, number of patients: 0
  Serious adverse event Cardiac failure, % of patients: (0.0%)
  Serious adverse event Cardiac failure, number of patients: 0
  Serious adverse event Dehydration, % of patients: (0.0%)
  Serious adverse event Dehydration, number of patients: 0
  Serious adverse event Diarrhea, % of patients: (0.0%)
  Serious adverse event Diarrhea, number of patients: 0
  Serious adverse event Dyspnea, % of patients: (0.0%)
  Serious adverse event Dyspnea, number of patients: 0
  Serious adverse event Fall, % of patients: (2.9%)
  Serious adverse event Fall, number of patients: 4
  Serious adverse event Gi haemorrhage, % of patients: (0.0%)
  Serious adverse event Gi haemorrhage, number of patients: 0
  Serious adverse event Injury, % of patients: (0.7%)
  Serious adverse event Injury, number of patients: 1
  Serious adverse event Myocardial infarction, % of patients: (2.1%)
  Serious adverse event Myocardial infarction, number of patients: 3
  Serious adverse event Nausea, % of patients: (0.0%)
  Serious adverse event Nausea, number of patients: 0
  Serious adverse event Pneumonia, % of patients: (0.7%)
  Serious adverse event Pneumonia, number of patients: 1
  Serious adverse event Sepsis, % of patients: (0.0%)
  Serious adverse event Sepsis, number of patients: 0
  Serious adverse event Surgical intervention, % of patients: (0.0%)
  Serious adverse event Surgical intervention, number of patients: 0
  Serious adverse event Syncope, % of patients: (0.7%)
  Serious adverse event Syncope, number of patients: 1
  Serious adverse event Thrombophlebitis deep, % of patients: (0.0%)
  Serious adverse event Thrombophlebitis deep, number of patients: 0
  Serious adverse event Transient ischemic attack, % of patients: (0.7%)
  Serious adverse event Transient ischemic attack, number of patients: 1
  Serious adverse event Urinary tract infection, % of patients: (0.7%)
  Serious adverse event Urinary tract infection, number of patients: 1
  Serious adverse event Vomiting, % of patients: (0.0%)
  Serious adverse event Vomiting, number of patients: 0
  Total patients with any SAE, %: (10.0%)
  Total patients with any SAE, number: 14
16 mg/day
  Adverse event Agitation, % of patients: (10.0%)
  Adverse event Agitation, number of patients: 28
  Adverse event Anorexia, % of patients: (6.5%)
  Adverse event Anorexia, number of patients: 18
  Adverse event Depression, % of patients: (8.6%)
  Adverse event Depression, number of patients: 24
  Adverse event Diarrhea, % of patients: (12.2%)
  Adverse event Diarrhea, number of patients: 34
  Adverse event Dizziness, % of patients: (5.4%)
  Adverse event Dizziness, number of patients: 15
  Adverse event Dyspepsia, % of patients: (4.7%)
  Adverse event Dyspepsia, number of patients: 13
  Adverse event Edema peripheral, % of patients: (2.9%)
  Adverse event Edema peripheral, number of patients: 8
  Adverse event Fall, % of patients: (5.05%)
  Adverse event Fall, number of patients: 14
  Adverse event Headache, % of patients: (6.8%)
  Adverse event Headache, number of patients: 19
  Adverse event Injury, % of patients: (4.3%)
  Adverse event Injury, number of patients: 12
  Adverse event Nausea, % of patients: (13.3%)
  Adverse event Nausea, number of patients: 37
  Adverse event Rhinitis, % of patients: (3.2%)
  Adverse event Rhinitis, number of patients: 9
  Adverse event Urinary tract infection, % of patients: (8.2%)
  Adverse event Urinary tract infection, number of patients: 23
  Adverse event Vomiting, % of patients: (6.1%)
  Adverse event Vomiting, number of patients: 17
  Adverse event Weight decrease, % of patients: (5.4%)
  Adverse event Weight decrease, number of patients: 15
  Adverse event of clinical interest Bradycardia, % of patients: (2.5%)
  Adverse event of clinical interest Bradycardia, number of patients: 7
  Adverse event of clinical interest Convulsions, number of patients: 0
  Adverse event of clinical interest Fatigue, % of patients: (3.6%)
  Adverse event of clinical interest Fatigue, number of patients: 10
  Adverse event of clinical interest Muscle weakness, % of patients: (1.1%)
  Adverse event of clinical interest Muscle weakness, number of patients: 3
  Adverse event of clinical interest Syncope, % of patients: (1.8%)
  Adverse event of clinical interest Syncope, number of patients: 5
  Serious adverse event Abdominal pain, % of patients: (0.7%)
  Serious adverse event Abdominal pain, number of patients: 2
  Serious adverse event Agitation, % of patients: (0.4%)
  Serious adverse event Agitation, number of patients: 1
  Serious adverse event Asthenia, % of patients: (0.7%)
  Serious adverse event Asthenia, number of patients: 2
